Laboratory results published in patent US7452388B2, “Compositions comprising dimeric or oligomeric ferrocenes” (Innospec Limited, priority 2000, dated 2008).
Like-named read-outs stand apart in the source and are kept apart here.

Assays:
[1] = Solubility testing in toluene at −30° C.
Description: Solubility testing was undertaken using the estimate of Fe content from C/H/N analysis. […] This procedure assumes the products below to contain substantially only C, H and Fe. Masses of product(s) sufficient to provide the required concentration of iron as condensation products were weighed into screw-cap vials and made up to 10.00 g with toluene. The samples were capped, shaken or swirled until homogenous then sealed using Parafilm™. The vials were then kept in an ethylene glycol/water filled bath held at −30° C. and periodically inspected for the appearance of solids or separation of liquid phases. After at least one week solids were separated by rapid filtration and soluble products isolated by removal of solvent under vacuum. Following analysis of the solids, maximum and minimum solubilities were estimated from the mass balance.

[2] = Viscosity of 2.5 wt % iron solutions in toluene (Bohlin CVO rheometer); format: physicochemical; settings: toluene solution at 2.5 wt % Fe
Experimental: Viscosities of 2.5 wt % iron solutions were determined using a Bohlin Instruments CVO rheometer using a 4° 40 mm cone and plate at shear rates of either 2 Pa or 0.5 Pa.

[3] = Fuel stability, in-house Test Method 1; settings: additive 20 ppm iron
[4] = toluene, −30° C., at least one week

| Compound | Solubility at −30° C., 2.5 wt % Fe (appearance) [1] | Solubility at −30° C., 5.0 wt % Fe (appearance) [1] | Viscosity at −30° C. (mPas) [2] [mPas] | Solubility at −30° C., 2.5 wt % Fe (appearance) [1, 4] | also measured |
| --- | --- | --- | --- | --- | --- |
| 1,1-diferrocenyl 2-ethylhexane [Compound 4] | Clear | Clear |  |  |  |
| 1,1-diferrocenyl cyclohexane [Compound 11] |  |  | 4.8 | Clear | Solubility of Fe as product ([1]; toluene, −30° C.): ~4.9 wt %; Solubility at −30° C., 5.0 wt % Fe (appearance) [1, 4]: Powder |
| 1,1-diferrocenylpentane [Compound 7] | Clear | Clear | 5.4 |  |  |
| CC(C)C([c-]1cccc1)[c-]1cccc1.[Fe+2].[Fe+2].c1cc[cH-]c1.c1cc[cH-]c1 [Compound 5, 1,1-diferrocenyl-2-methyl propane] |  |  |  | Clear |  |
| [Fe+2].[Fe+2].c1cc[cH-]c1.c1cc[cH-]c1.c1ccc(CC([c-]2cccc2)[c-]2cccc2)cc1 [Compound 9, 1,1-diferrocenyl phenyl methane] |  |  | 4.3 | Clear | Solubility at −30° C., 5.0 wt % Fe (appearance) [1, 4]: Clear |
| O=C1CCCC(=O)C1 [Compound 12, 1,3-Cyclohexanedione] | Clear | Crystals |  |  | Solubility of Fe as product [1]: 3.6 to 4.1 wt % by mass balance |
| CC(=O)CCC(C)=O [Compound 15, Acetonyl acetone] | Powder | Powder |  |  |  |
| Iron tris(2-ethylhexanoate) [Octanoate] |  |  |  |  | fuel stability (conclusion) [3]: markedly lower stability |
